Assay results taken from patent US20220056037A1 (SPV THERAPEUTICS INC., priority 2018, published 2022).

Legend:
[1] = Nonclinical pharmacokinetic study, IV and oral, in rats
Description: Nonclinical pharmacokinetic (PK) parameters of lead CDK4/6/9 inhibitors were determined in an intravenous (IV) and oral study (p.o.) conducted in rats. Lead compounds were each administered as a single oral dose at 100 mg/kg or by IV bolus via the caudal vein at the dose of 30 mg/kg. Blood samples were collected at 0.25, 0.5, 1, 2, 4, 8, 12, and 24 hours post i.v. administration, and at 1, 2, 4, 8, 24 and 48 hours post oral administration. Plasma was processed for drug concentration analysis using a validated LCMS/MS method, and PK parameters were calculated by using WinNonlin.

MAXFTN ZR-75-1 (ER +) = test: 2D cell proliferation assay (CellTiter-Blue); type: cell-based; details: Homo sapiens, 72 h; cell line MAXFTN ZR-75-1 (ER +); three days of treatment; read-out: IC (abs. IC50)
Description: (§1) Viability of the cells was analyzed by using the CellTiter-Blue® Cell Viability Assay (Promega), and was performed according to manufacturer's instructions. Briefly, cells were harvested from exponential phase cultures (Chapter 6.6), counted and plated in 96-well flat-bottom microtiter plates at a cell density of 4,000-60,000 cells/well in a volume of 140 μl per well. After a 24 hours recovery period, 10 μL cell culture medium (six control wells/plate) or culture medium with test compound were added (Chapter 6.2). The compounds were applied at five concentrations in full-log increments up to 100 μM in duplicate. Cultures were incubated at 37° C. and 5% CO2 in a humidified atmosphere for another three days. After three days of treatment, 20 μl/well CellTiter-Blue® reagent was added. Following incubation with CellTiter-Blue® reagent for up to four hours, fluorescence (FU) was measured by using the Enspire Multimode Plate Reader (excitation λ=570 nm, emission λ=600 nm). For calculations, the mean values of duplicate/sextuplicate (untreated control) data were used.
(§2) Drug effects were expressed in terms of the percentage of the fluorescence signal, obtained by comparison of the mean signal in the treated wells with the mean signal of the untreated controls (expressed by the test-versus-control value, T/C-value [%]):
(§3) IC values are reported as relative IC50 values and absolute IC50 and IC70 values. […] The absolute IC70 value gives the concentration of the test compound that achieves T/C=30%. The relative IC50 value is the concentration of test compound that gives a response half way between the top and bottom plateau of the sigmoidal concentration-response curve (inflection point of the curve). Calculation was done by 4parameter non-linear curve fit (Oncotest Data Warehouse Software).
(§4) If an IC50 or IC70 value could not be determined within the examined dose range (because a compound was either too active or lacked activity), the lowest or highest concentration studied was used for calculation of the geometric mean value.
(§5) The overall potency of a compound was determined by the geometric mean IC50/IC70 values of all individual IC50/IC70 values. In the heatmap representation of IC50 and IC70 values, the distribution of the IC50 or IC70 values obtained for a test compound in the individual cell lines is given in relation to the geometric mean […] or IC70 value, obtained over all PDX models tested. The individual IC values range from 1/32-fold geometric mean IC (corresponding to very potent compound activity or high tumor sensitivity) to 32-fold geometric mean IC (corresponding to lack of compound activity or tumor resistance). The heatmap presentation, therefore, represents an antiproliferative “fingerprint” profile of a test compound.

LXFA A549 = test: 2D cell proliferation assay (CellTiter-Blue); type: cell-based; details: Homo sapiens, 72 h; cell line LXFA A549; three days of treatment; read-out: IC (abs. IC50)
Description: as §1, §2, §3, §4, §5

PRXF 22Rv1 = test: 2D cell proliferation assay (CellTiter-Blue); type: cell-based; details: Homo sapiens, 72 h; cell line PRXF 22Rv1; three days of treatment; read-out: IC (abs. IC50)
Description: as §1, §2, §3, §4, §5

CXF Caco-2 = test: 2D cell proliferation assay (CellTiter-Blue); type: cell-based; details: Homo sapiens, 72 h; cell line CXF Caco-2; three days of treatment; read-out: IC (abs. IC50)
Description: as §1, §2, §3, §4, §5

MAXFHER BT-474 = test: 2D cell proliferation assay (CellTiter-Blue); type: cell-based; details: Homo sapiens, 72 h; cell line MAXFHER BT-474; three days of treatment; read-out: IC (abs. IC50)
Description: as §1, §2, §3, §4, §5

LXFE Calu-1 = test: 2D cell proliferation assay (CellTiter-Blue); type: cell-based; details: Homo sapiens, 72 h; cell line LXFE Calu-1; three days of treatment; read-out: IC (abs. IC50)
Description: as §1, §2, §3, §4, §5

CNXF U-87 MG = test: 2D cell proliferation assay (CellTiter-Blue); type: cell-based; details: Homo sapiens, 72 h; cell line CNXF U-87 MG; three days of treatment; read-out: IC (abs. IC50)
Description: as §1, §2, §3, §4, §5

UXF MFE-319 = test: 2D cell proliferation assay (CellTiter-Blue); type: cell-based; details: 72 h; cell line UXF MFE-319; three days of treatment; read-out: IC (abs. IC50)
Description: as §1, §2, §3, §4, §5

LYXFNH U-937 = test: 2D cell proliferation assay (CellTiter-Blue); type: cell-based; details: Homo sapiens, 72 h; cell line LYXFNH U-937; three days of treatment; read-out: IC (abs. IC50)
Description: as §1, §2, §3, §4, §5

LEXFCL MEC-1 = test: 2D cell proliferation assay (CellTiter-Blue); type: cell-based; details: Homo sapiens, MEC1, 72 h; cell line LEXFCL MEC-1; three days of treatment; read-out: IC (abs. IC50)
Description: as §1, §2, §3, §4, §5

LXFL NCI-H1299 = test: 2D cell proliferation assay (CellTiter-Blue); type: cell-based; details: Homo sapiens, 72 h; cell line LXFL NCI-H1299; three days of treatment; read-out: IC (abs. IC50)
Description: as §1, §2, §3, §4, §5

MAXFHER SK-BR-3 = test: 2D cell proliferation assay (CellTiter-Blue); type: cell-based; details: Homo sapiens, 72 h; cell line MAXFHER SK-BR-3; three days of treatment; read-out: IC (abs. IC50)
Description: as §1, §2, §3, §4, §5

MAXFLB 147D (ER +) = test: 2D cell proliferation assay (CellTiter-Blue); type: cell-based; details: 72 h; cell line MAXFLB 147D (ER +); three days of treatment; read-out: IC (abs. IC50)
Description: as §1, §2, §3, §4, §5

LIXFH Hep G2 = test: 2D cell proliferation assay (CellTiter-Blue); type: cell-based; details: Homo sapiens, HepG2, 72 h; cell line LIXFH Hep G2; three days of treatment; read-out: IC (abs. IC50)
Description: as §1, §2, §3, §4, §5

PRXF DU-145 = test: 2D cell proliferation assay (CellTiter-Blue); type: cell-based; details: Homo sapiens, 72 h; cell line PRXF DU-145; three days of treatment; read-out: IC (abs. IC50)
Description: as §1, §2, §3, §4, §5

LIXFH HEP-3B = test: 2D cell proliferation assay (CellTiter-Blue); type: cell-based; details: Homo sapiens, Hep3B, 72 h; cell line LIXFH HEP-3B; three days of treatment; read-out: IC (abs. IC50)
Description: as §1, §2, §3, §4, §5

[2] = rats, oral administration, 100 mg/kg, N = 3

CN1CCN(c2ccc(Nc3ncc4cc(C(=O)N(C)C)n(C56CC(C5)C6)c4n3)cc2)CC1 [SPV113]
Cmax ([1]; rat, plasma, iv, 30 mg/kg): 6830 ng/mL | clearance ([1]; rat, plasma, iv, 30 mg/kg): 18.7 mL/min/kg | half-life ([1]; rat, plasma, iv, 30 mg/kg): 5.73 h | Cmax ([1]; rat, plasma, po, 100 mg/kg): 2520 ng/mL | MRT ([1]; rat, plasma, po, 100 mg/kg): 25.5 h | BIOAVAILABILITY F ([1]; rats, oral 100 mg/kg vs IV bolus 30 mg/kg): 33.3% | AUC [1, 2]: 33798 ng·h/mL | T1/2 [1, 2]: 6.0 h | IC50 (MAXFTN ZR-75-1 (ER +)): 12600 nM | IC50 (LXFA A549): 1230 nM | IC50 (PRXF 22Rv1): ≤ 10 nM | IC50 (CXF Caco-2): ≥ 100000 nM | IC50 (MAXFHER BT-474): 802 nM | IC50 (LXFE Calu-1): 1560 nM | IC50 (CNXF U-87 MG): 100000 nM | IC50 (UXF MFE-319): 667 nM | IC50 (LYXFNH U-937): ≤ 10 nM | IC50 (LEXFCL MEC-1): ≤ 10 nM | IC50 (LXFL NCI-H1299): 1630 nM | IC50 (MAXFHER SK-BR-3): 2040 nM | IC50 (MAXFLB 147D (ER +)): 3470 nM | IC50 (LIXFH Hep G2): 124 nM | IC50 (PRXF DU-145): 253 nM | IC50 (LIXFH HEP-3B): 367 nM
